According to ChEMBL document CHEMBL1140714, “In search of novel agents for therapy of tropical diseases and human immunodeficiency virus” (J Med Chem, 2008):
The source made the active and inactive calls. The calls are words filed in the database; no cut-off is given here.

How the values were obtained:
Staphylococcus aureus = assay: Antibacterial activity against Staphylococcus aureus assessed as inhibition of biofilm formation; assay type: functional, organism-based
[1] = system: Trypanosoma brucei brucei; assay: Antitrypanosomal activity against Trypanosoma brucei brucei TC221; assay type: functional; settings: read-out: ED50 (the source's name)
Leishmania major = assay: Antileishmanial activity against Leishmania major MHOM/IL/81/FE/BNI infected in BALB/c mouse; assay type: functional
[2] = Cytotoxicity against mouse J774.1 cells after 48 hrs; assay type: cell-based; settings: read-out: ED50
Plasmodium falciparum [3] = assay: Antiplasmodial activity against chloroquine-sensitive Plasmodium falciparum; assay type: functional, organism-based
Plasmodium falciparum [4] = assay: Antiplasmodial activity against Plasmodium falciparum NF54 after 24 hrs; assay type: functional, organism-based; settings: NF54, 24 h
Plasmodium falciparum [5] = assay: Antiplasmodial activity against Plasmodium falciparum NF54 after 72 hrs; assay type: functional, organism-based; settings: NF54, 72 h
[6] = Plasmodium falciparum, read-out: IC50

| Compound | EC50 [1] | IC50 (Plasmodium falciparum [3]) | IC50 (Plasmodium falciparum [4]) | IC50 (Plasmodium falciparum [3]; [6]) | IC50 (Plasmodium falciparum [5]) | Activity (Staphylococcus aureus) | ED50 (Leishmania major) | CC50 at 48 h [2] | Activity (Plasmodium falciparum [3]) |
| --- | --- | --- | --- | --- | --- | --- | --- | --- | --- |
| COC(=O)C1C(=O)C(C(=O)OC)[C@H](c2ccccn2)N(Cc2ccccn2)[C@@H]1c1ccccn1 (stereo partly drawn) | 4.62 µM | Not Active | – | – | – | inactive | >100 µM | 29.9 µM | – |
| N=C(N)c1ccc(OCCCCCOc2ccc(C(=N)N)cc2)cc1 [PENTAMIDINE ISETHIONATE] | 0.0027 µM | – | – | – | – | – | – | – | – |
| C=CCN1[C@H](c2ccc([N+](=O)[O-])cc2)C(C(=O)OC)C(=O)C(C(=O)OC)[C@@H]1c1ccc([N+](=O)[O-])cc1 (stereo partly drawn) | 2.41 µM | Not Active | – | – | – | inactive | >100 µM | 50.3 µM | – |
| CCC[C@@H]1CC2(C[C@H](CCC)N1)C(=O)NC(=O)N2c1ccccc1 (stereo partly drawn) | > 100 µM | Not Active | – | – | – | inactive | >100 µM | 36 µM | – |
| COC(=O)C1C(=O)C(C(=O)OC)[C@H](c2cccc([N+](=O)[O-])c2)N(Cc2ccc(Cl)cc2)[C@@H]1c1cccc([N+](=O)[O-])c1 (stereo partly drawn) | – | Not Active | – | – | – | inactive | >100 µM | 46.6 µM | – |
| COC(=O)C1C(=O)C(C(=O)OC)[C@H](c2ccccn2)N(CCCCCCCC(=O)O)[C@@H]1c1ccccn1 (stereo partly drawn) | – | – | – | – | – | – | 50.34 µM | 33.8 µM | inactive |
| CCCC[C@@H]1CC2(C[C@H](CCCC)N1)C(=O)NC(=O)N2c1ccccc1 (stereo partly drawn) | 24.4 µM | Not Active | – | – | – | inactive | >100 µM | – | – |
| COC(=O)C1C(=O)C(C(=O)OC)[C@H](c2cccc([N+](=O)[O-])c2)N(Cc2ccc(C)cc2)[C@@H]1c1cccc([N+](=O)[O-])c1 (stereo partly drawn) | – | Not Active | – | – | – | inactive | >100 µM | 49.8 µM | – |
| C=CCN1[C@H](c2ccccn2)C(C(=O)OC)C(=O)C(C(=O)OC)[C@@H]1c1ccccn1 (stereo partly drawn) | – | Not Active | – | – | – | inactive | >100 µM | > 100 µM | – |
| COC(=O)C1C(=O)C(C(=O)OC)[C@H](c2ccccn2)N(CCO)[C@@H]1c1ccccn1 (stereo partly drawn) | – | Not Active | – | – | – | inactive | >100 µM | 31.2 µM | – |
| NCCCC(N)(C(=O)O)C(F)F (stereo not drawn) [EFLORNITHINE] | 22.9 µM | – | – | – | – | – | – | – | – |
| COC(=O)C1C(=O)C(C(=O)OC)[C@H](c2cccc([N+](=O)[O-])c2)N(Cc2ccc(OC)cc2)[C@@H]1c1cccc([N+](=O)[O-])c1 (stereo partly drawn) | – | Not Active | – | – | – | inactive | >100 µM | > 100 µM | – |
| C=CCN1[C@H](c2ccccc2)C(C(=O)OC)C(=O)C(C(=O)OC)[C@@H]1c1ccccc1 (stereo partly drawn) | – | Not Active | – | – | – | inactive | – | > 100 µM | – |
| C[C@@H]1CC2(C[C@H](C)N1)C(=O)NC(=O)N2c1ccccc1 (stereo partly drawn) | > 100 µM | Not Active | – | – | – | inactive | >100 µM | > 100 µM | – |
| COC(=O)C1C(=O)[C@H](C(=O)OC)C(c2ccccn2)N[C@@H]1c1ccccn1 (stereo partly drawn) | – | Not Active | – | – | – | inactive | >100 µM | > 100 µM | – |
| C=CCN1[C@@H](c2ccccn2)C(C(=O)OC)=C(O)C[C@H]1c1ccccn1 | – | – | 1.4 µM | – | – | inactive | 50 µM | 35 µM | – |
| COC(=O)C1C(=O)C(C(=O)OC)[C@H](c2cccc([N+](=O)[O-])c2)N(Cc2ccccc2)[C@@H]1c1cccc([N+](=O)[O-])c1 (stereo partly drawn) | – | Not Active | – | – | – | inactive | >100 µM | > 100 µM | – |

Further lines, with some results ahead:

| EC50 [1] | IC50 (Plasmodium falciparum [3]) | IC50 (Plasmodium falciparum [4]) | IC50 (Plasmodium falciparum [3]; [6]) | IC50 (Plasmodium falciparum [5]) | Compound | Activity (Staphylococcus aureus) | ED50 (Leishmania major) | CC50 at 48 h [2] | Activity (Plasmodium falciparum [3]) |
| --- | --- | --- | --- | --- | --- | --- | --- | --- | --- |
| > 100 µM | – | 4.7 µM | – | – | COC(=O)C1=C(c2ccccn2)N(Cc2ccccc2)C(c2ccccn2)CC1=O (stereo not drawn) | inactive | – | – | – |
| > 100 µM | Not Active | – | – | – | CC[C@@H]1CC2(C[C@@H](CC)N1)C(=O)NC(=O)N2Cc1ccccc1 (stereo partly drawn) | inactive | >100 µM | > 100 µM | – |
| – | Not Active | – | – | – | COC(=O)C1C(=O)C(C(=O)OC)[C@H](c2ccccn2)N(CCOCCO)[C@@H]1c1ccccn1 (stereo partly drawn) | inactive | 65.04 µM | 38.5 µM | – |
| 0.47 µM | – | – | – | – | COC(=O)C1=C(O)C[C@H](c2ccccn2)N(Cc2ccc(C)cc2)[C@@H]1c1ccccn1 | inactive | 83.83 µM | 34.9 µM | – |
| > 100 µM | – | – | – | – | O/N=C/C1CCN(CCCc2ccccc2)CC1 | inactive | >100 µM | > 100 µM | – |
| 19.3 µM | Not Active | – | – | – | COC(=O)C1C(=O)C(C(=O)OC)[C@H](c2ccccn2)N(CCCC(=O)O)[C@@H]1c1ccccn1 (stereo partly drawn) | inactive | >100 µM | 46 µM | – |
| > 100 µM | – | – | 31 µM | – | Clc1cccc(Cl)c1CON=C1CCN(CCCc2ccccc2)CC1 | inactive | >100 µM | > 100 µM | – |
| > 100 µM | – | – | – | – | COC(=O)C1=C(O)C[C@H](c2ccccn2)N(Cc2cccc(OC)c2)[C@@H]1c1ccccn1 | inactive | >100 µM | > 100 µM | – |
| – | – | 18 µM | – | – | COC(=O)C1=C(c2ccccn2)N(Cc2ccc(Cl)cc2)C(c2ccccn2)CC1=O (stereo not drawn) | inactive | – | – | – |
| 31 µM | Not Active | – | – | – | CC[C@@H]1CC2(C[C@H](CC)N1Cc1ccccc1)C(=O)NC(=O)N2c1ccccc1 (stereo partly drawn) | inactive | >100 µM | > 100 µM | – |
| 13.4 µM | Not Active | – | – | – | CC[C@@H]1CC2(C[C@H](CC)N1)C(=O)N(CCCc1ccccc1)C(=O)N2c1ccccc1 (stereo partly drawn) | inactive | >100 µM | > 100 µM | – |
| 0.43 µM | – | – | – | – | COC(=O)C1=C(O)C[C@H](c2ccccn2)N(Cc2ccc(OC)cc2)[C@@H]1c1ccccn1 | inactive | 30 µM | 29.9 µM | – |
| 3.74 µM | – | – | – | 14.6 µM | C[C@@H]1CC2(C[C@H](C)N1)C(=O)N(Cc1ccc([N+](=O)[O-])cc1)C(=O)N2Cc1ccccc1 (stereo partly drawn) | inactive | >100 µM | 42.4 µM | – |
| 20.3 µM | Not Active | – | – | – | CC[C@@H]1CC2(C[C@H](CC)N1)C(=O)N(Cc1ccccc1)C(=O)N2c1ccccc1 (stereo partly drawn) | inactive | – | – | – |
| – | – | – | 26 µM | – | ON=C1CCN(CCCc2ccccc2)CC1 | inactive | – | – | – |
| 18.3 µM | Not Active | – | – | – | COC(=O)C1C(=O)C(C(=O)OC)[C@H](c2ccccn2)N(CCCO)[C@@H]1c1ccccn1 (stereo partly drawn) | inactive | >100 µM | 32 µM | – |
| > 100 µM | Not Active | – | – | – | C[C@@H]1CC2(C[C@H](C)N1)C(=O)N(CCO)C(=O)N2Cc1ccccc1 (stereo partly drawn) | inactive | >100 µM | > 100 µM | – |
| 18.1 µM | Not Active | – | – | – | CC[C@@H]1CC2(C[C@H](CC)N1)C(=O)N(CCc1ccccc1)C(=O)N2c1ccccc1 (stereo partly drawn) | inactive | 41.1 µM | 32.3 µM | – |
| – | Not Active | – | – | – | COC(=O)C1=C(O)C[C@@H](c2ccccn2)N(Cc2ccccc2)[C@H]1c1ccccn1 | inactive | 25.97 µM | 33.2 µM | – |
| 25.4 µM | Not Active | – | – | – | CC[C@@H]1CC2(C[C@H](CC)N1Cc1ccccc1)C(=O)N(Cc1ccc([N+](=O)[O-])cc1)C(=O)N2c1ccccc1 (stereo partly drawn) | inactive | >100 µM | > 100 µM | – |
